Measured values: patent publication US12275684B2, “Methods for making and using endoxifen” (Atossa Therapeutics, Inc., priority 2017, dated 2025)
Several values for one entry are separate records, joined by “and”; a condition that tells them apart may be missing. Equal values may be shown once. Read-outs that look alike come from different tables or passages of the source.

Test: Placebo controlled, dose escalation pharmacokinetic study of oral (Z)-Endoxifen capsules (serum endoxifen; incl. accumulation ratios and dose linearity)
Type: in vivo, human
Details: for AUC(0-inf) / AUC(0-t) / Cmax / Tmax / Vd/F / concentration at 72 h / concentration at 120 h / concentration at 0.5 h / concentration at 1 h / concentration at 2 h / concentration at 3 h / concentration at 4 h / concentration at 5 h / concentration at 8 h / concentration at 10 h / concentration at 12 h / concentration at 24 h: female, human, serum, oral; for concentration at 72 h: Day 4 Hr 72; for concentration at 120 h: Day 6 Hr 120; for concentration at 0.5 h: Day 1 hr 0.5; for concentration at 1 h: Day 1 hr 1; for concentration at 2 h: Day 1 hr 2; for concentration at 3 h: Day 1 hr 3; for concentration at 4 h: Day 1 hr 4; for concentration at 5 h: Day 1 hr 5; for concentration at 8 h: Day 1 hr 8; for concentration at 10 h: Day 1 hr 10; for concentration at 12 h: Day 1 hr 12; for concentration at 24 h: Day 1 hr 24
Source text: An objective of the study was to assess the safety and tolerability of oral (Z)-Endoxifen when administered […] orally as a capsule to healthy female volunteers. A secondary objective was to assess the pharmacokinetics of multiple doses of oral (Z)-Endoxifen in the subjects.
Generally, healthy female volunteers aged ≥18 years and ≤65 years were enrolled. 24 participants were enrolled in 3 cohorts and will be administered study drug orally. Three dose levels of orally administered (Z)-Endoxifen were investigated in 3 cohorts. In each cohort participants were randomized to receive an oral (Z)-Endoxifen or placebo in a blinded fashion. Enteric-resistant capsules used in the study were designed as delayed release capsules to resist rupture for at least 30 minutes, but typically, for about 2 hours, under gastric conditions and then open fully in intestinal fluid (DRCaps; Capsugel, a Lonza Company, USA). Enteric-resistant (Swedish Orange size Zero (0); Capsugel, USA) DRCaps capsules manually filled with 1, 2 or 4 mg of (Z)-endoxifen neat in compliance with GMP requirements were used. Placebo capsules contained microcrystalline cellulose an inert common capsule and tablet excipient.
Each cohort enrolled 8 participants, with 6 participants receiving (Z)-Endoxifen 1 mg capsules orally at 1 mg (Cohort 1), 2 mg (Cohort 2) or 4 mg (Cohort 3) doses and 2 participants receiving matching placebo capsules. In Cohort 1 (Dose Level=1 mg) two participants (sentinels) were dosed 24 hours prior to the remaining participants. One sentinel was dosed with (Z)-Endoxifen and the other with placebo. The remaining six participants in Cohort 1 were dosed as no safety concerns were identified in the sentinel participants. The non-sentinel participants in Cohort 1 were admitted to the clinical research facility at least one day later than the sentinels. There were no sentinels in Cohorts 2 and 3.
Participant engagement in this study was for a period of 56 days. These included a 28 day screening period, and a 7 day post treatment period for Pharmacokinetic (PK) sampling. There were two confinement periods, one at the beginning and one at the end of the dosing periods. Participants were confined to the clinical facility on Days-1 through to Day 2 and Days 21 and 22. If participants were to experience any clinically significant adverse events during the study, they would have been required to remain in the clinical facility for further observation at the discretion of the Principal Investigator (PI).
Healthy female volunteers were screened within 28 days prior to commencement of dosing. Participants were admitted to the clinical facility on Day-1 for up to 3 days. The first dose of (Z)-Endoxifen or placebo capsules was administered on Day 1. Following completion of all safety assessments and sampling for PK analyses, participants were discharged from the clinical facility on Day 2. The first dose on Day 1 was followed by a 6-day treatment free period (Days 2-7). Each participant returned to the clinical facility for PK blood draws and safety assessments during the treatment free period on study Days 4 and 6. On Day 8 participants commenced daily administration of (Z)-Endoxifen capsules or placebo capsules for 14 consecutive days (Days 8-21). Participants were supplied with study drug capsules and asked to self administer daily. Participants visited the clinical facility on Days 11, 14 and 17, prior to dose administration, for PK blood draws and safety assessments. On the morning of Day 21 each participant returned to the clinical facility prior to dose administration and were confined to the facility until Day 22 to allow for the collection of PK blood draws and safety assessments. The Day 21 dose was the last administration of study drug. Participants were discharged from the clinical facility on Day 22 and returned for PK blood draws and safety assessments on study Days 24, 26, and 28. […]

[1] = 1 mg, read-out: Serum concentration, GeoMean
[2] = 1 mg, read-out: Serum concentration, Max
[3] = 1 mg, read-out: Serum concentration, Mean
[4] = 1 mg, read-out: Serum concentration, Median
[5] = 1 mg, read-out: Serum concentration, Min

In the case of CC/C(=C(\c1ccc(O)cc1)c1ccc(OCCNC)cc1)c1ccccc1 [(Z)-Endoxifen, (Z)-4-(1-(4-(2-(methylamino)ethoxy)phenyl)-2-phenylbut-1-enyl) phenol], the “AUC(0-inf), individual subjects” value (Dose: 2 mg oral, Day 1) was 1188 ng·h/mL and 755 ng·h/mL and 954 ng·h/mL and 1242 ng·h/mL and 1489 ng·h/mL, the “AUC(0-inf), individual subjects” value (Dose: 4 mg oral, Day 1) was 1098 ng·h/mL and 1642 ng·h/mL and 736 ng·h/mL and 1883 ng·h/mL and 2116 ng·h/mL and 4624 ng·h/mL and the “Time to maximum serum endoxifen levels” value (FIG. 3 and FIG. 4) was “about 10 hours”. For the same compound, the “dose response of Cmax and AUC24hr” value (across the three dose levels, once daily oral) was “dose-proportionality (linear dose response)”, the “Mean Ratio AUC24 hr(Day 21)/AUC0-inf(Day 1)” value (dose 1 mg (n = 5)) was 0.81 (SD 0.20) and the “Mean Ratio AUC24 hr(Day 21)/AUC24 hr(Day 1)” value (dose 1 mg (n = 5)) was 3.09 (SD 1.49). The “Mean Ratio Cmax(Day 21)/Cmax(Day 1)” value (dose 1 mg (n = 5)) was 2.74 (SD 1.29), the “Mean Ratio AUC24 hr(Day 21)/AUC0-inf(Day 1)” value (dose 2 mg (n = 6)) was 0.85 (SD 0.20) and the “Mean Ratio AUC24 hr(Day 21)/AUC24 hr(Day 1)” value (dose 2 mg (n = 6)) was 3.04 (SD 0.79). For the same compound, the “Mean Ratio Cmax(Day 21)/Cmax(Day 1)” value (dose 2 mg (n = 6)) was 2.92 (SD 0.88), the “Mean Ratio AUC24 hr(Day 21)/AUC0-inf(Day 1)” value (dose 4 mg (n = 6)) was 1.08 (SD 0.38) and the “Mean Ratio AUC24 hr(Day 21)/AUC24 hr(Day 1)” value (dose 4 mg (n = 6)) was 3.47 (SD 1.08). The “Mean Ratio Cmax(Day 21)/Cmax(Day 1)” value (dose 4 mg (n = 6)) was 3.56 (SD 1.01), the AUC(0-inf) (1 mg, Day 1, 1 mg, N = 5, read-out: AUC0-inf, GeoMean) was 559 ng·h/mL and the AUC(0-inf) (1 mg, Day 1, 1 mg, N = 5, read-out: AUC0-inf, Mean) was 567 ng·h/mL. For the same compound, the AUC(0-inf) (1 mg, Day 1, 1 mg, N = 5, read-out: AUC0-inf, Median) was 534 ng·h/mL, the AUC(0-t) (1 mg, Day 1, 1 mg, N = 5, read-out: AUC24hr, GeoMean) was 155 ng·h/mL and the AUC(0-t) (1 mg, Day 1, 1 mg, N = 5, read-out: AUC24hr, Mean) was 158 ng·h/mL. For the same compound, the AUC(0-t) (1 mg, Day 1, 1 mg, N = 5, read-out: AUC24hr, Median) was 171 ng·h/mL, the AUC(0-t) (1 mg, Day 1, 1 mg, N = 5, read-out: AUCTlast, GeoMean) was 466 ng·h/mL and the AUC(0-t) (1 mg, Day 1, 1 mg, N = 5, read-out: AUCTlast, Mean) was 471 ng·h/mL. For the same compound, the AUC(0-t) (1 mg, Day 1, 1 mg, N = 5, read-out: AUCTlast, Median) was 472 ng·h/mL, the Cmax (1 mg, Day 1, 1 mg, N = 5, read-out: Cmax, GeoMean) was 9.5 ng/mL and the Cmax (1 mg, Day 1, 1 mg, N = 5, read-out: Cmax, Mean) was 9.6 ng/mL. The Cmax (1 mg, Day 1, 1 mg, N = 5, read-out: Cmax, Median) was 10 ng/mL, the Tmax (1 mg, Day 1, 1 mg, N = 5, read-out: Tmax, GeoMean) was 5.11 h and the Tmax (1 mg, Day 1, 1 mg, N = 5, read-out: Tmax, Mean) was 5.62 h. For the same compound, the Tmax (1 mg, Day 1, 1 mg, N = 5, read-out: Tmax, Median) was 6 h, the Vd/F (1 mg, Day 1, 1 mg, N = 5, read-out: Vz/F, GeoMean) was 118 L and the Vd/F (1 mg, Day 1, 1 mg, N = 5, read-out: Vz/F, Mean) was 120 L. It also gave a Vd/F (1 mg, Day 1, 1 mg, N = 5, read-out: Vz/F, Median) of 108 L, an AUC(0-t) (1 mg, Day 21, 1 mg, N = 5, read-out: AUC24hr, GeoMean) of 431 ng·h/mL and an AUC(0-t) (1 mg, Day 21, 1 mg, N = 5, read-out: AUC24hr, Mean) of 458 ng·h/mL. It also gave an AUC(0-t) (1 mg, Day 21, 1 mg, N = 5, read-out: AUC24hr, Median) of 527 ng·h/mL, a Cmax (1 mg, Day 21, 1 mg, N = 5, read-out: Cmax, GeoMean) of 23.3 ng/mL and a Cmax (1 mg, Day 21, 1 mg, N = 5, read-out: Cmax, Mean) of 24.6 ng/mL. It also gave a Cmax (1 mg, Day 21, 1 mg, N = 5, read-out: Cmax, Median) of 29 ng/mL, a Tmax (1 mg, Day 21, 1 mg, N = 5, read-out: Tmax, GeoMean) of 6.64 h and a Tmax (1 mg, Day 21, 1 mg, N = 5, read-out: Tmax, Mean) of 6.88 h. The Tmax (1 mg, Day 21, 1 mg, N = 5, read-out: Tmax, Median) was 8 h, the Vd/F (1 mg, Day 21, 1 mg, N = 5, read-out: Vz/F, GeoMean) was 173 L and the Vd/F (1 mg, Day 21, 1 mg, N = 5, read-out: Vz/F, Mean) was 181 L. The Vd/F (1 mg, Day 21, 1 mg, N = 5, read-out: Vz/F, Median) was 170 L, the concentration at 72 h [1] was 7.84 nM and the concentration at 72 h [2] was 10.7 nM. The concentration at 72 h [3] was 8.03 nM, the concentration at 72 h [4] was 8.03 nM and the concentration at 72 h [5] was 5.35 nM. The concentration at 120 h [1] was 3.53 nM, the concentration at 120 h [2] was 5.35 nM and the concentration at 120 h [3] was 3.75 nM. For the same compound, the concentration at 120 h [4] was 2.68 nM, the concentration at 120 h [5] was 2.68 nM and the concentration at 0.5 h [1] was 3.18 nM. For the same compound, the concentration at 0.5 h [2] was 5.35 nM, the concentration at 0.5 h [3] was 2.68 nM and the concentration at 0.5 h [4] was 2.68 nM. It also gave a concentration at 0.5 h [5] of 0 nM, a concentration at 1 h [1] of 3.33 nM and a concentration at 1 h [2] of 8.03 nM. For the same compound, the concentration at 1 h [3] was 3.75 nM, the concentration at 1 h [4] was 2.68 nM and the concentration at 1 h [5] was 2.68 nM. It also gave a concentration at 2 h [1] of 17 nM, a concentration at 2 h [2] of 18.7 nM and a concentration at 2 h [3] of 17.1 nM. The concentration at 2 h [4] was 18.7 nM, the concentration at 2 h [5] was 13.4 nM and the concentration at 3 h [1] was 17.1 nM. The concentration at 3 h [2] was 18.7 nM, the concentration at 3 h [3] was 17.1 nM and the concentration at 3 h [4] was 16.1 nM. The concentration at 3 h [5] was 16.1 nM, the concentration at 4 h [1] was 20.1 nM and the concentration at 4 h [2] was 26.8 nM. It also gave a concentration at 4 h [3] of 20.3 nM, a concentration at 4 h [4] of 18.7 nM and a concentration at 4 h [5] of 18.7 nM. It also gave a concentration at 5 h [1] of 23.2 nM, a concentration at 5 h [2] of 26.8 nM and a concentration at 5 h [3] of 23.6 nM. The concentration at 5 h [4] was 24.1 nM, the concentration at 5 h [5] was 16.1 nM and the concentration at 8 h [1] was 21.1 nM. For the same compound, the concentration at 8 h [2] was 32.1 nM, the concentration at 8 h [3] was 22 nM and the concentration at 8 h [4] was 21.4 nM. It also gave a concentration at 8 h [5] of 13.4 nM, a concentration at 10 h [1] of 21.6 nM and a concentration at 10 h [2] of 32.1 nM. For the same compound, the concentration at 10 h [3] was 22.5 nM, the concentration at 10 h [4] was 21.4 nM and the concentration at 10 h [5] was 13.4 nM. It also gave a concentration at 12 h [1] of 17.1 nM, a concentration at 12 h [2] of 21.4 nM and a concentration at 12 h [3] of 18.2 nM. It also gave a concentration at 12 h [4] of 21.4 nM, a concentration at 12 h [5] of 8.03 nM and a concentration at 24 h [1] of 14.7 nM. The concentration at 24 h [2] was 18.7 nM, the concentration at 24 h [3] was 15 nM and the concentration at 24 h [4] was 16.1 nM. For the same compound, the concentration at 24 h [5] was 10.7 nM and the AUC(0-inf) (2 mg, Day 1, 2 mg, N 6, read-out: AUC0-inf, GeoMean) was 1080 ng·h/mL.
